According to patent publication US20170049793A1, “MOLECULAR ACTIVATORS OF THE WNT/BETA-CATENIN PATHWAY” (THE GENERAL HOSPITAL CORPORATION, priority 2009, published 2017):

Legend:
[1] = tested on: B16 melanoma cells; assay: MTT proliferation assay in B16 melanoma cells; assay type: cell-based, murine; settings: 1 μM BIO vs control cells
[2] = Suitability for murine therapeutic trials (toxicity, serum levels); assay type: in vivo, mice; settings: precluding murine therapeutic trials
[3] = tested on: nuclear β-catenin (Wnt/β-catenin pathway) in B16 cells; assay: Immunofluorescent staining of β-catenin in B16 cells; assay type: cell-based, murine; settings: 1 μM BIO vs DMSO control
Protocol: A polyclonal rabbit anti-β-catenin antibody was used for detection of 1β-catenin (1:1000 dilution for immunoblot, 1:200 dilution for immunohistochemistry). Cells were grown on 18 mm glass coverslips, for 48-72 hours, fixed using 4% paraformaldehyde, permeabilized using 0.25% Triton X-100, and then blocked with 10% goat serum. Goat anti-rabbit Alexa Fluor-568 antibody (Molecular Probes; Eugene, Oreg.) was diluted 1:1000. Cells were counterstained for nucleic acid with DAPI (Molecular Probes; Eugene, Oreg.). Paraffin-embedded nevus sections were stained using an antibody dilution of 1:200. Cellular lysates were obtained by lysing cells on plate with a 0.1% NP-40 based buffer and analyzed by NuPage 4-12% gradient gels (Invitrogen; Grand Island, N.Y.). The WNTSA antibody was obtained from Cell Signaling Technologies (Danvers, Mass.).

[4] = tested on: Axin2 expression (Wnt/β-catenin pathway) in B16 cells; assay: Quantitative PCR of the Wnt/β-catenin target gene Axin2 in B16 cells; assay type: cell-based, murine; settings: 1 μM BIO vs control cells
Protocol: Cells were cultured for approximately 72 hours until they reached 80-90% confluency. RNA was purified using the RNeasy kit using the manufacturer's protocol (Qiagen; Maryland, Md.). cDNA was synthesized using Superscript Reverse Transcriptase (Invitrogen; Grand Island, N.Y.). Light Cycler FastStart DNA Master SYBR Green1 (Roche; Mannheim, Germany) was used for real-time PCR as previously described (Major et al., Science 316:1043 (2007), which is hereby incorporated by reference in its entirety). Quantitative PCR results presented in the manuscript are representative of experiments performed on a minimum of three biologic replicates.

O=C1Nc2cc(Br)ccc2/C1=C1/Nc2ccccc2/C1=N\O [BIO, 6-bromoindirubin-3′-oxime]
proliferation (MTT assay) [1]: decreased proliferation | toxicity [2]: obstacles relating to both toxicity | nuclear β-catenin (immunofluorescent staining) [3]: increased nuclear β-catenin | Axin2 levels (quantitative PCR) [4]: increased Axing levels
